Test results published in US7109341B2, “Therapeutic amides” (Wayne State University, priority 2002, dated 2006).
Values joined by “and” are separate entries in the source; they are usually repeats but may differ in a detail not shown here. Equal entries are not always repeated. Where two headings read alike, the source gives them in different places.

Columns and labels:
[1] = test system: Pancreatic Ductal Adenocarcinoma 03; test: Evaluation against early stage Pancreatic Ductal Adenocarcinoma 03, IP route, C57 females (Table 9); assay type: in vivo
Procedure: The IP route was used for two reasons. […] This is approximately 40% of the dose given IV with the racemic mix (60 mg/kg, see Table 7).

[2] = Water solubility noted on drug preparation for injection; assay type: physicochemical
Procedure: (§1) Compounds as their sodium salts were prepared in a 1% sodium bicarbonate solution, H2O or phosphate buffered saline (PBS), with pH adjusted to 7.0 to 7.5 with HCl, and administered intravenously (IV) or orally (PO), at injection volumes of 0.2 mL per injection.

[3] = test system: Pancreatic Ductal Adenocarcinoma 03; conditions: footnote, no dose given; cited from earlier work;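 on T/C: mice carrying bilateral subcutaneous tumors, with tumor weight estimated from two-dimensional caliper readings taken twice a week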;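 on activity rating: mice carrying bilateral subcutaneous tumors, with tumor weight estimated from two-dimensional caliper readings taken twice a week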
[4] = test system: Mammary Adenocarcinoma 16/C; conditions: Cage 4, IV, qd 1–5, total 240 mg/kg
Description: Table 7. […] The animal was then re-implanted with Mam16/C/71.

[5] = test system: Mammary Adenocarcinoma 16/C
Description: (§2) Pancreatic ductal adenocarcinoma-03, mammary adenocarcinoma-16/C, mammary adenocarcinoma-17/Adr, and human melanoma LOX were used in the studies. Tumors were maintained in the mouse strain of origin (C57B1/6 for Panc-03 and C3H for the mammary tumors). Balb/c SCID mice (B and T cell deficient) were used for tumor maintenance and chemotherapy trials involving the human melanoma LOX. Tumors were transplanted into the appropriate F1 hybrid (B6D2F1=C57B 1/6 female× DBA/2 male) or the strain of origin for the chemotherapy trials. Individual mouse body weights for each experiment were within 5 grams, and all mice were over 17 grams at the start of therapy. The mice were supplied food and water ad libitum.
(§3) Animals were pooled, implanted subcutaneously with 30 to 60 mg tumor fragments by a 12 gauge trocar on day 0, and again pooled before unselective distribution to the various treatment and control groups. For early stage treatment, chemotherapy was started within 1 to 3 days after tumor implantation while the number of cells was relatively small (10^7 to 10^8 cells). For upstaged or advanced staged trials, the tumors were allowed to grow for five or more days before treatment was started. Tumors were measured with a caliper twice weekly. […] Tumor weights are estimated from two-dimensional measurements:
(§4) Tumor weight (in mg)=(a×b^2)/2, where a and b are the tumor length and width in (mm), respectively.
a) Tumor growth delay (T−C value), where T is the median time (in days) required for the treatment group tumors to reach a predetermined size (e.g., 1,000 mg), and C is the median time (in days) for the control group tumors to reach the same size. Tumor-free survivors were are excluded from these calculations (cures are tabulated separately).
(§5) b) Calculation of tumor cell kill for subcutaneously (SC) growing tumors. […] The conversion of the T−C values to log10 cell kill is possible because the Td of tumors re-growing post treatment (Rx) approximates the Td values of the tumors in untreated control mice.
(§6) It should be noted that an activity rating of +++ to ++++ is needed to effect partial regression (PR) or complete regression (CR) of 100 to 300 mg size masses of most transplanted solid tumors of mice. Thus, an activity rating of + or ++ would not be scored as active by usual clinical criteria. A PR is a reduction in tumor mass to less than 50% of pretreatment size. A CR is a reduction in tumor mass to below palpable size (i.e., reduction to zero detectable mass).
(§7) The T/C value in percent is an indication of anti-tumor effectiveness: A T/C=0% means no tumor growth. A T/C=100% means no anti-tumor activity, i.e., the treated and control tumors grew equally. […] A T/C value<10% is considered to indicate highly significant anti-tumor activity, and is the level used by NCI to justify a clinical trial if toxicity, formulation, and certain other requirements are met (termed DN-2 level activity).
as §1

[6] = test system: Pancreatic Ductal Adenocarcinoma 03; conditions: for Comments (Active/Inactive) / Comments (activity rating) / Drug Death / Log Cell Kill / Median Tumor Burden in mg on d17 / T-C / T/C % / Time to 1000 mg / Tumor Free on 148: BDF1 males;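 on T/C: mice carrying bilateral subcutaneous tumors, with tumor weight estimated from two-dimensional caliper readings taken twice a week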;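 on activity rating: mice carrying bilateral subcutaneous tumors, with tumor weight estimated from two-dimensional caliper readings taken twice a week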
Description: as §2, §3, §4
a) Tumor growth delay (T−C value), where T is the median time (in days) required for the treatment group tumors to reach a predetermined size (e.g., 1,000 mg), and C is the median time (in days) for the control group tumors to reach the same size. Tumor-free survivors were are excluded from these calculations (cures are tabulated separately). This value is an important criterion of anti-tumor effectiveness because it allows the quantification of tumor cell kill.
as §5, §6, §7, §1
Thus, for this test, all compounds initially were to be given IP, in an attempt to identify a suitable alternate route of administration.

[7] = Cage 2, BID3–5, total 450 mg/kg
[8] = Cage 3, BID3–7, total 450 mg/kg
[9] = Cage 5, Qd3–7, total 157.5 mg/kg
[10] = Cage 2, IV, Q2Dx8, total 480 mg/kg
[11] = Cage 11, IP, 80 mg/kg/inj days 3, 5, 11, 13, 15, total 400 mg/kg
[12] = Cage 12, IP, 50 mg/kg/inj Q2d×7 from day 3, total 350 mg/kg
[13] = IP, Q2d: 3–15, total dosage 350 mg/kg
[14] = IP, d3, 5, 11, 13, 15, total dosage 400 mg/kg

With `CC(Oc1ccc(Oc2ccc3ccc(Br)cc3n2)cc1)C(=O)NCCS(=O)(=O)[O-].[Na+]` [Compound 14g (R), Sodium (2-(4-(7-bromo-2-quinolinyl)oxy)phenoxy) propionylamino ethanesulfonate] the “Day of Wt. Loss Nadir” value [1, 7] was 9 days, the “Drug Death (day of death)” value [1, 7] was “one drug death and 1/5” and the “Log Cell Kill” value [1, 7] was 1.52. The “Mean Body Wt. Loss in g/mouse” value [1, 7] was −4.4 g/mouse, the “Median Tumor Burden in mg on d14 (range)” value [1, 7] was 0 mg and the “T-C” value [1, 7] was 10.75 days. For the same compound, the T/C % [1, 7] was 0%, the “Time to 1000 mg in days (range)” value [1, 7] was 24.75 days and the “Tumor Free on d31” value [1, 7] was 0/5. The “day of body weight recovery” value [1, 7] was no more than 17 days, the toxicity observations [1, 7] was “increased urinary output and a sunken appearance” and the “Day of Wt. Loss Nadir” value [1, 8] was 9 days. For the same compound, the “Drug Death (day of death)” value [1, 8] was 0/5, the “Log Cell Kill” value [1, 8] was 1.72 and the “Mean Body Wt. Loss in g/mouse” value [1, 8] was −1.2 g/mouse. For the same compound, the “Median Tumor Burden in mg on d14 (range)” value [1, 8] was 126 mg, the “T-C” value [1, 8] was 12 days and the T/C % [1, 8] was 12.6%. The “Time to 1000 mg in days (range)” value [1, 8] was 26 days, the “Tumor Free on d31” value [1, 8] was 0/5 and the water solubility [2] was “Low water solubility limits”. For the same compound, the solubility limit ([2]; expressed as injectable dose) was 25 mg/kg (0.2 ml/inj).
In the case of `O=c1[nH]cc(F)c(=O)[nH]1` [Compound 5-FU, 5-FU], the “sensitivity of this tumor to standard agents (activity rating)” value [3] is listed as “It is modestly responsive to 5-FU (+ activity). (0.7–1.2)”.
In the case of `CC(Oc1ccc(Oc2ccc3ccc(Br)cc3n2)cc1)C(=O)O` [Compound 11c (R), 2-{4-{(7-bromo-2-quinolinyl)oxy}phenoxy}propionic acid, reference compound], the “Day of Wt. Loss Nadir” value [4] is reported as 9 days, the “Drug Death (day of death)” value [4] is reported as “One animal died and 1/5” and the “Log Cell Kill” value [4] is reported as 1.8. For the same compound, the “Mean Body Wt. Loss in g/mouse” value [4] was −6.0 g/mouse, the “Median Tumor Burden in mg on d 9 (range)” value [4] was 0 mg and the “Percent Body Weight Loss” value [4] was −29.4%. The “T-C” value [4] was 7.2 days, the T/C % [4] was 0% and the “Time to 1,000 mg in days (range)” value [4] was 15.2 days. For the same compound, the “Tumor Free on d 161” value [4] was 0/5, the “day of body weight recovery” value [4] was no more than 13 days and the toxicity observations [4] was “diarrhea”. For the same compound, the “body weight loss day 6” value ([4]; day 6) was −17.5%, the “Comments (activity rating)” value ([1]; Cage 4, Qd3–7, total 260 mg/kg) was “LD20” and the “Day of Wt. Loss Nadir” value ([1]; Cage 4, Qd3–7, total 260 mg/kg) was 10 days. For the same compound, the “Drug Death (day of death)” value ([1]; Cage 4, Qd3–7, total 260 mg/kg) was “One drug death and 1/5”, the “Log Cell Kill” value ([1]; Cage 4, Qd3–7, total 260 mg/kg) was 1.5 and the “Mean Body Wt. Loss in g/mouse” value ([1]; Cage 4, Qd3–7, total 260 mg/kg) was −3.2 g/mouse. For the same compound, the “Median Tumor Burden in mg on d14 (range)” value ([1]; Cage 4, Qd3–7, total 260 mg/kg) was 126 mg, the “Percent Body Weight Loss” value ([1]; Cage 4, Qd3–7, total 260 mg/kg) was −16.7% and the “T-C” value ([1]; Cage 4, Qd3–7, total 260 mg/kg) was 10.5 days. The T/C % ([1]; Cage 4, Qd3–7, total 260 mg/kg) was 12.6%, the “Time to 1000 mg in days (range)” value ([1]; Cage 4, Qd3–7, total 260 mg/kg) was 24.5 days and the “Tumor Free on d31” value ([1]; Cage 4, Qd3–7, total 260 mg/kg) was 0/5. For the same compound, the “day of full body weight recovery” value ([1]; Cage 4, Qd3–7, total 260 mg/kg) was no more than 17 days, the “Day of Wt. Loss Nadir” value [1, 9] was 9 days and the “Drug Death (day of death)” value [1, 9] was 0/5. The “Log Cell Kill” value [1, 9] was 1.58, the “Mean Body Wt. Loss in g/mouse” value [1, 9] was −0.0 g/mouse and the “Median Tumor Burden in mg on d14 (range)” value [1, 9] was 260 mg. The “T-C” value [1, 9] was 11 days, the T/C % [1, 9] was 26% and the “Time to 1000 mg in days (range)” value [1, 9] was 25 days. For the same compound, the “Tumor Free on d31” value [1, 9] was 0/5, the “Preparation: state of the injection preparation” value ([2]; white solid + 3% EtOH + 1% POE + 0.25% NaHCO3 + saline, pH = 9 → 7 with 1N HCl) was “Compound 11c (R): white solid + 3% EtOH + 1% POE + 0.25% NaHCO3 + saline → solution (pH = 9 → 7 with 1N HCl); 0.5 ml/mouse/inj, IP” and the “Drug Death (day of death)” value [5, 10] was 0/5. The “Log Cell Kill” value [5, 10] was 4.8, the “Median Tumor Burden in mg on day 7 (range)” value [5, 10] was 0 mg and the “T-C” value [5, 10] was 16 days. For the same compound, the T/C % [5, 10] was 0%, the “Time to 1000 mg in days (range)” value [5, 10] was 22 days and the “Tumor Free on d28” value [5, 10] was “no cures and 0/5”. The “Day of Wt. Loss Nadir” value ([5]; mouse, in vivo) was 14 days, the “Percent Body Weight Loss” value ([5]; mouse, in vivo) was −4.3% and the Activity Rating [6, 11] was “++++ (Highly active >2.8)”. For the same compound, the T/C [6, 11] was 0%, the log cell kill [6, 11] was 3.3 and the “tumor free on day 148” value [6, 11] was 1/5 and One mouse remained tumor free. For the same compound, the Activity Rating [6, 12] was “++ (1.3–1.9)”, the T/C [6, 12] was 3% and the log kill [6, 12] was 1.4. The “Comments (Active/Inactive)” value [6, 13] was “Active”, the “Comments (activity rating)” value [6, 13] was “(++) (1.3–1.9)” and the “Drug Death” value [6, 13] was 0/5. The “Log Cell Kill” value [6, 13] was 1.4, the “Median Tumor Burden in mg on d17” value [6, 13] was 63 mg and the “T-C” value [6, 13] was 10 days. The T/C % [6, 13] was 3%, the “Time to 1000 mg” value [6, 13] was 25 days and the “Tumor Free on 148” value [6, 13] was 0/5. The “Comments (Active/Inactive)” value [6, 14] was “Active”, the “Comments (activity rating)” value [6, 14] was “(++++) (Highly active >2.8)” and the “Drug Death” value [6, 14] was 0/5. The “Log Cell Kill” value [6, 14] was 3.3, the “Median Tumor Burden in mg on d17” value [6, 14] was 0 mg and the “T-C” value [6, 14] was 23 days. For the same compound, the T/C % [6, 14] was 0%, the “Time to 1000 mg” value [6, 14] was 38 days and the “Tumor Free on 148” value [6, 14] was 1/5. For the same compound, the “Day of Wt. Loss Nadir” value ([6]; mouse, in vivo) was 9 days and 8 days, the “day of full weight recovery” value ([6]; mouse, in vivo) was 16 days and 11 days and the “day of weight loss nadir” value ([6]; mouse, in vivo) was 9 days and 8 days.
